The values below come from patent US20210189342A1, “COMPOSITIONS AND METHODS FOR MODULATING MONOCYTE AND MACROPHAGE INFLAMMATORY PHENOTYPES AND IMMUNOTHERAPY USES THEREOF” (Verseau Therapeutics, Inc., priority 2018, published 2021).

Where only a bound is given, the exact number is not on record here.

One data set concerns CD84. The data set can be described thus: siRNA dose response, CD84 mRNA knockdown, Dual-Glo Luciferase Assay. Format: cell-based, human. Particulars: Hepa1-6 + reporter plasmid, 24 hr. How it is done: (§1) Dose response curves for siRNAs were generated in vitro using a variety of cell lines according to Table 4.
(§2) Briefly, cells were seeded in 96-well plates and reverse transfected with siRNA, Lipofectamine® 2000 (0.5 uL/well; ThermoFisher), and, in some cases, a reporter plasmid (50 ng/well). The reporter plasmid (psiCHECK™-2, Promega) encoded both firefly luciferase and the gene of interest fused to renilla luciferase; silencing of the gene of interest results in proportional silencing of renilla luciferase but leaves firefly luciferase unaffected as an internal control.
(§3) After 24 hr incubation at 37° C., mRNA knockdown was measured using an endpoint assay. For targets without a reporter plasmid, a branched DNA (bDNA) assay was performed according to the manufacturer's instructions (QuantiGene® Singleplex Gene Expression Assay, ThermoFisher) to measure both the target gene and GAPDH (housekeeping gene) mRNA. Data are plotted as siRNA concentration (nM) vs. remaining mRNA (ratio of target gene to GAPDH, normalized to mock siRNA-transfected cells). For targets with a reporter plasmid, a Dual-Glo® Luciferase Assay was performed according to the manufacturer's instructions (Promega) to measure firefly and renilla luciferase expression. Data are plotted as siRNA concentration (nM) vs. remaining mRNA (ratio of renilla to firefly luminescence, normalized to mock siRNA-transfected cells).
(§4) For all dose response curves, a 4-parameter logistic model was applied to determine the IC50 of each siRNA sequence (Table 5 and FIG. 2). Data shown in Table 5 and FIG. 2 represent the mean of quadruplicates, +/−standard deviation.
As for “XD-09610: siRNA targeting CD84 (sense 5'-accAAAAAuuAcAcAGAGudTsdT-3'; antisense 5'-ACUCUGUGuAAUUUUUGGUdTsdT-3'; as printed in the source, key not given here)”, the IC50 is 0.047 nM.
On the same count and under the same terms, with “XD-09611: siRNA targeting CD84 (sense 5'-gaGGGuAAuGuccuucAAAdTsdT-3'; antisense 5'-UUUGAAGGAcAUuACCCUCdTsdT-3'; as printed in the source, key not given here)” the figure was 0.082 nM; with “XD-09612: siRNA targeting CD84 (sense 5'-gguAAuGuccuucaAAucudTsdT-3'; antisense 5'-AGAUUUGAAGGAcAUuACCdTsdT-3'; as printed in the source, key not given here)”, 0.351 nM.
The same measure, in the same setting: as for “XD-09613: siRNA targeting CD84 (sense 5'-ucAuAuGAucAuuuAAGGAdTsdT-3'; antisense 5'-UCCUuAAAUGAUcAuAUGAdTsdT-3'; RNA with 2'-O-methyl and phosphorothioate modifications, case key not given here, as printed in the source, key not given here)”, the figure is 0.241 nM.
For the substance “XD-09614: siRNA targeting CD84 (sense 5'-gaAcAcAGuuuAuuccGAAdTsdT-3'; antisense 5'-UUCGGAAuAAACUGUGUUCdTsdT-3'; as printed in the source, key not given here)”, the IC50 is less than 0.005 nM.
As to “XD-09615: siRNA targeting CD84 (sense 5'-ggAAcuGGGuAuAauccAAdTsdT-3'; antisense 5'-UUGGAUuAuACCcAGUUCCdTsdT-3'; as printed in the source, key not given here)”, the IC50 was 0.048 nM.
The same measure, in the same setting: with “XD-09616: siRNA targeting CD84 (sense 5'-gcAccAAcuAccAuuAGcAdTsdT-3'; antisense 5'-AGCuAAUGGuAGUUGGUGCdTsdT-3'; RNA with 2'-O-methyl and phosphorothioate modifications, case key not given here, as printed in the source, key not given here)” the figure was 0.067 nM; with “XD-09617: siRNA targeting CD84 (sense 5'-cacuAcAGuuAAcgcuGAAdTsdT-3'; antisense 5'-UUcAGCGUuAACUGuAGUGdTsdT-3'; as printed in the source, key not given here)”, 0.01 nM; with “XD-09618: siRNA targeting CD84 (sense 5'-gguAucAGGAAucaAAAuudTsdT-3'; antisense 5'-AAUUUUGAUUCCUGAuACCdTsdT-3'; as printed in the source, key not given here)”, less than 0.005 nM.

Another data set concerns SIGLEC9. Kind of data set: siRNA dose response, SIGLEC9 mRNA knockdown, Dual-Glo Luciferase Assay. It counts as cell-based, human. The note with it: Hepa1-6 + reporter plasmid, 24 hr. How it is done:
as §1, §2, §3, §4
For the substance “XD-09180: siRNA targeting SIGLEC9 (sense 5'-acAAGuAAAcuGcuGacGAdTsdT-3'; antisense 5'-UCGUcAGcAGUUuACUUGUdTsdT-3'; RNA with 2'-O-methyl and phosphorothioate modifications, case key not given here, as printed in the source, key not given here)”, the IC50 was 0.04 nM.
The same measure, in the same setting: as for “XD-09181: siRNA targeting SIGLEC9 (sense 5'-guAAAcuGcuGAcgAuGcAdTsdT-3'; antisense 5'-UGcAUCGUcAGcAGUUuACdTsdT-3'; RNA with 2'-O-methyl and phosphorothioate modifications, case key not given here, as printed in the source, key not given here)”, the figure is 0.286 nM.
In the case of “XD-09182: siRNA targeting SIGLEC9 (sense 5'-ucGcAuGGcuGGAuuuAccdTsdT-3'; antisense 5'-GGuAAAUCcAGCcAUGCGAdTsdT-3'; RNA with 2'-O-methyl and phosphorothioate modifications, case key not given here, as printed in the source, key not given here)”, the IC50 came out at 0.837 nM.
Still for that read-out and setting: as for “XD-09183: siRNA targeting SIGLEC9 (sense 5'-guuccGGGAAGGGgccAAudTsdT-3'; antisense 5'-AUUGGCCCCUUCCCGGAACdTsdT-3'; RNA with 2'-O-methyl and phosphorothioate modifications, case key not given here, as printed in the source, key not given here)”, the figure is 0.229 nM.
For the substance “XD-09184: siRNA targeting SIGLEC9 (sense 5'-ggGccAAuAcAGAccAGGAdTsdT-3'; antisense 5'-UCCUGGUCUGuAUUGGCCCdTsdT-3'; RNA with 2'-O-methyl and phosphorothioate modifications, case key not given here, as printed in the source, key not given here)”, the IC50 is 0.127 nM.
On the same count and under the same terms, with “XD-09185: siRNA targeting SIGLEC9 (sense 5'-ccAGAAGAAGuGAuGcGGGdTsdT-3'; antisense 5'-CCCGcAUcACUUCUUCUGGdTsdT-3'; RNA with 2'-O-methyl and phosphorothioate modifications, case key not given here, as printed in the source, key not given here)” the figure was 0.094 nM; with “XD-09186: siRNA targeting SIGLEC9 (sense 5'-ucAccGGcucucuguGAAudTsdT-3'; antisense 5'-AUUcAcAGAGAGCCGGUGAdTsdT-3'; RNA with 2'-O-methyl and phosphorothioate modifications, case key not given here, as printed in the source, key not given here)”, 0.488 nM.
As for “XD-09187: siRNA targeting SIGLEC9 (sense 5'-gaccAcGaacAAGaccGucdTsdT-3'; antisense 5'-GACGGUCUUGUUCGUGGUCdTsdT-3'; RNA with 2'-O-methyl and phosphorothioate modifications, case key not given here, as printed in the source, key not given here)”, the IC50 is 0.406 nM.
Regarding “XD-09188: siRNA targeting SIGLEC9 (sense 5'-gaAcAAGAccGuccAucucdTsdT-3'; antisense 5'-GAGAUGGACGGUCUUGUUCdTsdT-3'; RNA with 2'-O-methyl and phosphorothioate modifications, case key not given here, as printed in the source, key not given here)”, the IC50 came out at 0.148 nM.
As for “XD-09189: siRNA targeting SIGLEC9 (sense 5'-agAccGuccAucucAAcGudTsdT-3'; antisense 5'-ACGUUGAGAUGGACGGUCUdTsdT-3'; RNA with 2'-O-methyl and phosphorothioate modifications, case key not given here, as printed in the source, key not given here)”, the IC50 came out at 0.694 nM.
For “XD-09190: siRNA targeting SIGLEC9 (sense 5'-ccGuccAucucAAcGuGucdTsdT-3'; antisense 5'-GAcACGUUGAGAUGGACGGdTsdT-3'; RNA with 2'-O-methyl and phosphorothioate modifications, case key not given here, as printed in the source, key not given here)”, the IC50 came to 0.905 nM.
Same read-out and setting: with “XD-09192: siRNA targeting SIGLEC9 (sense 5'-caGuAuccAcAGucuuGGGdTsdT-3'; antisense 5'-CCcAAGACUGUGGAuACUGdTsdT-3'; RNA with 2'-O-methyl and phosphorothioate modifications, case key not given here, as printed in the source, key not given here)” the figure was 0.236 nM; with “XD-09193: siRNA targeting SIGLEC9 (sense 5'-guAuccAcAGucuuGGGAAdTsdT-3'; antisense 5'-UUCCcAAGACUGUGGAuACdTsdT-3'; RNA with 2'-O-methyl and phosphorothioate modifications, case key not given here, as printed in the source, key not given here)”, 0.459 nM; with “XD-09194: siRNA targeting SIGLEC9 (sense 5'-cucAGcAGGucuAccuGAAdTsdT-3'; antisense 5'-UUcAGGuAGACCUGCUGAGdTsdT-3'; RNA with 2'-O-methyl and phosphorothioate modifications, case key not given here, as printed in the source, key not given here)”, 5.63 nM.
Turning to “XD-09195: siRNA targeting SIGLEC9 (sense 5'-gcGuGGGAGAuAcgGGcAudTsdT-3'; antisense 5'-AUGCCCGuAUCUCCcACGCdTsdT-3'; as printed in the source, key not given here)”, the IC50 worked out at 0.125 nM.
Consider “XD-09197: siRNA targeting SIGLEC9 (sense 5'-ggAGAuAcGGGcAuAGAGGdTsdT-3'; antisense 5'-CCUCuAUGCCCGuAUCUCCdTsdT-3'; as printed in the source, key not given here)”, for which the IC50 came to 0.851 nM.
